Assay results: patent publication US7598245B2 (Vertex Pharmaceuticals Incorporated, priority 2003, dated 2009)
Read-outs that look alike come from different tables or passages of the source.

Key:
GSK-3β (AA 1-420) = GSK-3β (AA 1-420) (Homo sapiens, UniProt P49841); experiment: Inhibition of GSK-3, coupled enzyme system; format: biochemical; settings: 20 μM ATP, 30° C.
Procedure: Compounds are screened for their ability to inhibit GSK-3β (AA 1-420) activity using a standard coupled enzyme system [Fox et al. Protein Sci. 1998, 7, 2249]. Reactions are carried out in a solution containing 100 mM HEPES (pH 7.5), 10 mM MgCl2, 25 mM NaCl, 300 μM NADH, 1 mM DTT and 1.5% DMSO. Final substrate concentrations in the assay are 20 μM ATP (Sigma Chemicals, St Louis, Mo.) and 300 μM peptide (American Peptide, Sunnyvale, Calif.). Reactions are carried out at 30° C. and 20 nM GSK-3β. Final concentrations of the components of the coupled enzyme system are 2.5 mM phosphoenolpyruvate, 300 μM NADH, 30 μg/ml pyruvate kinase and 10 μg/ml lactate dehydrogenase.
An assay stock buffer solution is prepared containing all of the reagents listed above with the exception of ATP and the test compound of interest. The assay stock buffer solution (175 μl) is incubated in a 96 well plate with 5 μl of the test compound of interest at final concentrations spanning 0.002 μM to 30 μM at 30° C. for 10 min. Typically, a 12 point titration is conducted by preparing serial dilutions (from 10 mM compound stocks) with DMSO of the test compounds in daughter plates. The reaction is initiated by the addition of 20 μl of ATP (final concentration 20 μM). Rates of reaction are obtained using a Molecular Devices Spectramax plate reader (Sunnyvale, Calif.) over 10 min at 30° C. The Ki values are determined from the rate data as a function of inhibitor concentration.

FLT-3 = biological target: T1, FLT-3 (Homo sapiens, UniProt P36888); experiment: Inhibition of FLT-3, radiometric filter-binding assay; format: biochemical; settings: 90 μM ATP, pE4Y substrate
T1 construct: 0.02% BSA and 3 nM FLT-3
T1 sequence (P36888 27-993): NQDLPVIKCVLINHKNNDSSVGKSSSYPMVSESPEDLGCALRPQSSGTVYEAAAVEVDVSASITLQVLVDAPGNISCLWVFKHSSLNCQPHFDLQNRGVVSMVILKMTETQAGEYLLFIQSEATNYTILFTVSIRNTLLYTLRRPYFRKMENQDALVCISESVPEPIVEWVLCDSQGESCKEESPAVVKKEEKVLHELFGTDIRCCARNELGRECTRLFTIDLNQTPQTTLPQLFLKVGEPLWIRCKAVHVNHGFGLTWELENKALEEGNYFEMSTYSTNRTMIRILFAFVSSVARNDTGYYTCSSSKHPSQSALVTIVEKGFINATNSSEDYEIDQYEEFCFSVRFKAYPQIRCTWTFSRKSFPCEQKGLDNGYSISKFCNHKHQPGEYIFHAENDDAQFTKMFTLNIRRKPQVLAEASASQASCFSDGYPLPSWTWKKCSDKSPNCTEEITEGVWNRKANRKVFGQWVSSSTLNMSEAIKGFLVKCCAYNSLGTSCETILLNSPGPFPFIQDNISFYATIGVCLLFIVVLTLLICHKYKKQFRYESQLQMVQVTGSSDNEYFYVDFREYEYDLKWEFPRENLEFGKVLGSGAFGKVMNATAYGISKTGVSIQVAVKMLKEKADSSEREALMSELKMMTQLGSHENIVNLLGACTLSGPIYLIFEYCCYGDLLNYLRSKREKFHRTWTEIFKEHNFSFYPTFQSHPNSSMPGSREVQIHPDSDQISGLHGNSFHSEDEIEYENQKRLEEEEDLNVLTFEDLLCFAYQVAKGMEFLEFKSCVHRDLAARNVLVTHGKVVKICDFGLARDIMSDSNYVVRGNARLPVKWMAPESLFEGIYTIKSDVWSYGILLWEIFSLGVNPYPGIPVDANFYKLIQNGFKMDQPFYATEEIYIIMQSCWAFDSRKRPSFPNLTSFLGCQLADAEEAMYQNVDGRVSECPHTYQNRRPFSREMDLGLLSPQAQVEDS
Procedure: Compounds were screened for their ability to inhibit FLT-3 activity using a radiometric filter-binding assay. This assay monitors the ^33P incorporation into a substrate poly(Glu, Tyr) 4:1 (pE4Y). Reactions were carried out in a solution containing 100 mM HEPES (pH 7.5), 10 mM MgCl2, 25 mM NaCl, 1 mM DTT, 0.01% BSA and 2.5% DMSO. Final substrate concentrations in the assay were 90 μM ATP and 0.5 mg/mL pE4Y (both from Sigma Chemicals, St Louis, Mo.). The final concentration of compounds is generally between 0.01 and 5 μM. Typically, a 12-point titration was conducted by preparing serial dilutions from 10 mM DMSO stock of test compound. Reactions were carried out at room temperature.
Two assay solutions were prepared. Solution 1 contains 100 mM HEPES (pH 7.5), 10 mM MgCl2, 25 mM NaCl, 1 mg/ml pE4Y and 180 μM ATP (containing 0.3 μCi of [γ-^33P]ATP for each reaction). Solution 2 contains 100 mM HEPES (pH 7.5), 10 mM MgCl2, 25 mM NaCl, 2 mM DTT, 0.02% BSA and 3 nM FLT-3. The assay was run on a 96 well plate by mixing 50 μL each of Solution1 and 2.5 mL of the test compounds. The reaction was initiated with Solution2. After incubation for 20 minutes at room temperature, the reaction was stopped with 50 μL of 20% TCA containing 0.4 mM of ATP. All of the reaction volume was then transferred to a filter plate and washed with 5% TCA by a Harvester9600 from TOMTEC (Hamden, Conn.). The amount of ^33P incorporation into pE4y was analyzed by a Packard TopCount Microplate Scintillation Counter (Meriden, Conn.). The data was fitted using Prism software to get an IC50 or Ki.

[1] = given as IC50 or Ki, read-out: IC50 or Ki values (FLT-3)

GSK-3β (AA 1-420), sequence (P49841 whole entry, the tested form may be a part): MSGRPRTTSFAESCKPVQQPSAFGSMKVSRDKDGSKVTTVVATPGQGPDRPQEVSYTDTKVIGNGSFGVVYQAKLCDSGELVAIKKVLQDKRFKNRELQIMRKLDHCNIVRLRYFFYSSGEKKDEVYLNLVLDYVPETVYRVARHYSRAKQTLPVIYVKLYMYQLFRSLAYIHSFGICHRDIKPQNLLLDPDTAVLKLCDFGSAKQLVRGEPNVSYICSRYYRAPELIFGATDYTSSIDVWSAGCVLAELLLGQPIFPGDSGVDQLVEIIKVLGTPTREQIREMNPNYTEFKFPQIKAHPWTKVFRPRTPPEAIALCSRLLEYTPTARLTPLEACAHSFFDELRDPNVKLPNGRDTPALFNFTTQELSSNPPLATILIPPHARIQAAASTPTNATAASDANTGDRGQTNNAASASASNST

Row | SMILES | Ki (GSK-3β (AA 1-420)) | Ki (FLT-3; [1]) | Ki (FLT-3; read-out: Ki values (FLT-3))
1 | COc1cc(Nc2ncn(-c3ccccc3)n2)cc(OC)c1OC [Compound I-42] | > 1000 nM | < 100 nM | 1 to 30 nM
2 | COc1cc(Nc2ncn(-c3ccc(C#N)cc3)n2)cc(OC)c1OC [Compound I-43] | 500 to 1000 nM | < 100 nM | 1 to 30 nM
3 | c1ccc(-n2cnc(Nc3ccc4c(c3)OCCO4)n2)cc1 [Compound I-44] | > 1000 nM | < 100 nM | 1 to 30 nM
4 | CCOc1cccc(Nc2ncn(-c3ccccc3)n2)c1 [Compound I-45] | > 1000 nM | < 100 nM | 1 to 30 nM
5 | CC(C)Oc1cccc(Nc2ncn(-c3ccccc3)n2)c1 [Compound I-46] | > 1000 nM | < 100 nM | 1 to 30 nM
6 | CCOc1ccc(Nc2ncn(-c3ccccc3)n2)cc1 [Compound I-47] | > 1000 nM | < 100 nM | 30 to 200 nM
7 | c1ccc(Nc2ncn(-c3ccnc(N4CCCCC4)c3)n2)cc1 [Compound I-49, phenyl-[1-(3,4,5,6-tetrahydro-2H-[1,2′]bipyridinyl-4′-yl)-1H-[1,2,4]triazol-3-yl]-amine] | 500 to 1000 nM |  | < 60 nM
8 | c1ccc(Nc2ncn(-c3ccnc(NC4CCCCC4)c3)n2)cc1 [Compound I-50] | 500 to 1000 nM |  | 1 to 30 nM
9 | CN(CCO)c1cc(-n2cnc(Nc3ccccc3)n2)ccn1 [Compound I-51] | < 500 nM |  | < 60 nM
10 | c1ccc(Nc2ncn(-c3ccnc(N4CCCCCCC4)c3)n2)cc1 [Compound I-52] | 500 to 1000 nM |  | 
11 | CN(C)CCCN(C)c1cc(-n2cnc(Nc3ccccc3)n2)ccn1 [Compound I-53] | > 1000 nM |  | 
12 | CCN(CCO)c1cc(-n2cnc(Nc3ccccc3)n2)ccn1 [Compound I-54] | < 500 nM |  | 
13 | CN(Cc1ccccc1)c1cc(-n2cnc(Nc3ccccc3)n2)ccn1 [Compound I-55] | > 1000 nM |  | 1 to 30 nM
14 | CC1CCCN1c1cc(-n2cnc(Nc3ccccc3)n2)ccn1 (stereo not shown) [Compound I-56] | < 500 nM |  | 1 to 30 nM
15 | CN(Cc1cccnc1)c1cc(-n2cnc(Nc3ccccc3)n2)ccn1 [Compound I-57] | < 500 nM |  | 1 to 30 nM
16 | CCCN(CCO)c1cc(-n2cnc(Nc3ccccc3)n2)ccn1 [Compound I-58] | < 500 nM |  | 1 to 30 nM
17 | COCCN(C)c1cc(-n2cnc(Nc3ccccc3)n2)ccn1 [Compound I-59, (2-methoxy-ethyl)-methyl-[4-(3-phenylamino-[1,2,4]triazol-1-yl)-pyridin-2-yl]-amine] | < 500 nM |  | 1 to 30 nM
18 | CCN(CC)CCNc1cc(-n2cnc(Nc3ccccc3)n2)ccn1 [Compound I-60] | > 1000 nM |  | 30 to 200 nM
19 | CN1C(C)(C)CC(Nc2cc(-n3cnc(Nc4ccccc4)n3)ccn2)CC1(C)C [Compound I-61] | > 1000 nM |  | 
20 | CC(C)CCN(C)c1cc(-n2cnc(Nc3ccccc3)n2)ccn1 [Compound I-62, methyl-(3-methyl-butyl)-[4-(3-phenylamino-[1,2,4]triazol-1-yl)-pyridin-2-yl]-amine] | < 500 nM |  | 1 to 30 nM
21 | O=c1[nH]c2ccccc2n1C1CCN(c2cc(-n3cnc(Nc4ccccc4)n3)ccn2)CC1 [Compound I-63] | > 1000 nM |  | > 200 nM
22 | O=C(C1CCCO1)N1CCN(c2cc(-n3cnc(Nc4ccccc4)n3)ccn2)CC1 (stereo not shown) [Compound I-64] | > 1000 nM |  | > 200 nM
23 | OC[C@H]1CCCN(c2cc(-n3cnc(Nc4ccccc4)n3)ccn2)C1 [Compound I-65] | 500 to 1000 nM |  | 
24 | CC(=O)N1CCCN(c2cc(-n3cnc(Nc4ccccc4)n3)ccn2)CC1 [Compound I-66] | > 1000 nM |  | < 60 nM
25 | CCC(=O)N1CCCN(c2cc(-n3cnc(Nc4ccccc4)n3)ccn2)CC1 [Compound I-67] | > 1000 nM |  | 30 to 200 nM
26 | CCCC(=O)N1CCCN(c2cc(-n3cnc(Nc4ccccc4)n3)ccn2)CC1 [Compound I-68] | > 1000 nM |  | 30 to 200 nM
27 | CC(C)CC(=O)N1CCCN(c2cc(-n3cnc(Nc4ccccc4)n3)ccn2)CC1 [Compound I-70] | > 1000 nM |  | 
28 | O=C(Nc1cc(-n2cnc(Nc3ccccc3)n2)ccn1)C1CCCCC1 [Compound I-93] | < 500 nM |  | 
